Experiments:
NMDA receptor = details: Carter et al 1988; cited from earlier work
sigma receptor [1] = details: cited from earlier work
sigma receptor [2] = molecular target: sigma receptor (Cavia porcellus, UniProt Q60492); test: biochemical
sigma receptor (Cavia porcellus, UniProt Q60492), sequence (Q60492 whole entry): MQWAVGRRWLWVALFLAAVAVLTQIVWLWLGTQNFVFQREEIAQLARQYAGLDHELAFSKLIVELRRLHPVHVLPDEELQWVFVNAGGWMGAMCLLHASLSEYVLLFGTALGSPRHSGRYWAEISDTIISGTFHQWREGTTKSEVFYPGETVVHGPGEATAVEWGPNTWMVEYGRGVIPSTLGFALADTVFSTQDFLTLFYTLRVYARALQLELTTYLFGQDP

| Ki (sigma receptor [2]) | Molecule | NMDA receptor antagonism (NMDA receptor) | further results |
| --- | --- | --- | --- |
| 3.69 ± 0.85 nM | CN(CCc1ccc(Cl)c(Cl)c1)CC1CCCCN1C (stereo not drawn) [Compound 2, 2-[N-[2-(3,4-Dichlorophenyl)ethyl]-N-(methyl)aminomethyl]-1-(methyl)piperidine] | – | – |
| 16 ± 3.62 nM | CCN1CCCC1CNCCc1ccc(Cl)c(Cl)c1 (stereo not drawn) [Compound 3, 2-[N-(3,4-dichlorophenylethyl)aminomethyl]-1-(ethyl)pyrrolidine] | – | – |
| 1.48 ± 0.37 nM | CCN1CCCC1CN(C)CCc1ccc(Cl)c(Cl)c1 (stereo not drawn) [Compound 4, 2-[N-(3,4-Dichlorophenylethyl)-N-(methyl)aminomethyl]-1-(ethyl)pyrrolidine] | – | – |

The remaining lines, values behind:

| Molecule | Ki (sigma receptor [2]) | NMDA receptor antagonism (NMDA receptor) | further results |
| --- | --- | --- | --- |
| 1-(4-chlorophenyl)-2-[1-(4-fluorophenyl)piperidinyl]ethanol | – | non-competitive NMDA receptor antagonists | – |
| CN(CCc1ccc(Cl)c(Cl)c1)[C@@H]1CCCC[C@@H]1N1CCCC1 (single isomer, unassigned) [cis-N-[3,4-dichlorophenylethyl]-N-methyl-2-(1-pyrrolidinyl)cyclohexylamine] | – | – | sigma ligand potency and selectivity (sigma receptor [1]): extremely potent and selective ligands for the sigma receptor |
| CC(C(O)c1ccc(O)cc1)N1CCC(Cc2ccccc2)CC1 (stereo not drawn) [ifenprodil] | – | non-competitive NMDA receptor antagonists | – |

From US5571832A (priority 1994, dated 1996)
